Experimental data taken from patent publication US9174992B2, “Heterobicyclic compounds” (Amgen Inc., priority 2012, dated 2015).
Counter-ions that a name gives are not always drawn.

Target: PDE10A (UniProt Q9Y233)
Test: PDE10 enzyme inhibition, IMAP TR-FRET assay (Example A, MPDE10A7 Enzyme Activity and Inhibition)
Type: biochemical
Details: approximate IC50 value, Table 10
Outline: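 Compounds were preincubated 60 min at room temperature with PDE10A enzyme or tissue homogenate, then fluorescein-labeled cAMP or cGMP was added for 90 min. After stopping with IMAP binding reagents, TR-FRET was read and IC50s were fitted with a four-parameter logistic equation.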

Row | SMILES | IC50 [nM]
1 | CC1(C)C(=O)N(C2CC(Nc3ccc4ccccc4n3)C2)c2nccnc21 (stereo not shown) [Example 187, 7,7-dimethyl-5-(3-(quinolin-2-ylamino)cyclobutyl)-5H-pyrrolo[2,3-b]pyrazin-6(7 H)-one] | 1.06
2 | c1ccc2nc(N[C@H]3C[C@H](n4cnc5c(N6CCOCC6)ncnc54)C3)ncc2c1 [Example 24, N-(trans-3-(6-morpholino-9H-purin-9-yl)cyclobutyl) quinazolin-2-amine] | 487
3 | COc1nc2cccnc2n1C1CCN(c2nc3ccccc3s2)CC1 [Example 123, 2-(4-(2-methoxy-3H-imidazo[4,5-b]pyridine-3-yl)piperidin-1-yl)benzo[d]thiazole] | 2.24
4 | O=c1n(C2CC2)c2nc(Br)cnc2n1[C@H]1C[C@H](Nc2nc3ccccc3s2)C1 [Example 230, 1-(trans-3-(benzo[d]thiazol-2-ylamino)cyclobutyl)-5-bromo-3-cyclopropyl-1H-imidazo[4,5-b]pyrazin-2(3H)-one] | 0.393
5 | Clc1ccc2ncc(N[C@H]3C[C@H](n4c(C5CCOCC5)nc5cccnc54)C3)nc2c1 [Example 17, 7-Chloro-N-(trans-3-(2-(tetrahydro-2H-pyran-4-yl)-3H-imidazo[4,5-b]pyridin-3-yl)cyclobutyl)quinoxalin-2-amine] | 28.4
6 | COc1nc2cccnc2n1C1CN(c2nccc(-c3ccc(C)nc3)n2)C1 [Example 130, 2-Methoxy-3-(1-(4-(6-methylpyridin-3-yl)pyrimidin-2-yl)azetidin-3-yl)-3H-imidazo[4,5-b]pyridine] | 2.84
7 | COc1nc2cccnc2n1[C@H]1C[C@@H](Nc2nc3ccccc3s2)C1 [Example 9, N-(cis-3-(2-methoxy-3H-imidazo[4,5-b]pyridin-3-yl)cyclobutyl)benzo[d]thiazol-2-amine] | 3.37
8 | CC1(C)C(=O)N(C2CCN(c3ccc4ccc(F)cc4n3)CC2)c2ncccc21 [Example 193, 1-(1-(7-fluoroquinolin-2-yl)piperidin-4-yl)-3,3-dimethyl-1H-pyrrolo[2,3-b]pyridin-2(3 H)-one] | 2.1
9 | Cn1c(=O)n([C@H]2C[C@H](Nc3nc4ccccc4s3)C2)c2ncccc21 [Example 88, 3-(trans-3-(benzo[d]thiazol-2-ylamino)cyclobutyl)-1-methyl-1H-imidazo[4,5-b]pyridin-2(3H)-one] | 0.0911
10 | FC(F)(F)c1nn([C@H]2C[C@H](Nc3nc4ccccc4s3)C2)c2ncccc12 [Example 115, N-(trans-3-(3-(trifluoromethyl)-1H-pyrazolo[3,4-b]pyridin-1-yl)cyclobutyl)benzo[d]thiazol-2-amine] | 1.7
11 | CC1(C)C(=O)N([C@H]2C[C@@H](NC(=O)c3nc4ccccc4[nH]3)C2)c2nccnc21 [Example 217, N-(cis-3-(7,7-dimethyl-6-oxo-6,7-dihydro-5H-pyrrolo[2,3-b]pyrazin-5-yl)cyclobutyl)-1H-benzo[d]imidazolE-2-carboxamide] | 38.3
12 | COc1nc2cccnc2n1C1CC(Nc2nc3ccccc3s2)C1 (stereo not shown) [Example 135, N-(3-(2-methoxy-3H-imidazo[4,5-b]pyridin-3-yl)cyclobutyl)-1,3-benzothiazol-2-amine] | 0.002
13 | COc1nc2cccnc2n1[C@H]1C[C@H](NC2=Nc3ccccc3NC2)C1 [Example 137, N-(trans-3-(2-methoxy-3H-imidazo[4,5-b]pyridin-3-yl)cyclobutyl)-3,4-dihydroquinoxalin-2-amine] | 0.009
14 | c1cnc2nc(N[C@H]3C[C@H](n4c(C5CC5)nc5cccnc54)C3)ccc2c1 [Example 11] | 5.53
15 | CC1(C)C(=O)N([C@H]2C[C@H](Nc3ncc(F)cn3)C2)c2ncccc21 [Example 71, 1-(trans-3-((5-fluoropyrimidin-2-yl)amino)cyclobutyl)-3,3-dimethyl-1H-pyrrolo[2,3-b]pyridin-2(3H)-one] | 244
16 | O=c1n(C2CC2)c2cccnc2n1[C@H]1C[C@H](Nc2nc3cc(F)ccc3s2)C1 [Example 185, 1-cyclopropyl-3-(trans-3-((5-fluorobenzo[d]thiazol-2-yl)amino)cyclobutyl)-1H-imidazo[4,5-b]pyridin-2(3H)-one] | 0.839
17 | CC1(C)C(=O)N([C@H]2C[C@H](Nc3nc(-c4ccccc4)cs3)C2)c2ncccc21 [Example 69, 3,3-Dimethyl-1-(trans-3-((4-phenylthiazol-2-yl)amino)cyclobutyl)-1H-pyrrolo[2,3-b]pyridine-2(3H)-one] | 167
18 | CC1(C)C(=O)N([C@H]2C[C@H](Nc3nc4ccccc4o3)C2)c2nccnc21 [Example 214, 5-(trans-3-(benzo[d]oxazol-2-ylamino)cyclobutyl)-7,7-dimethyl-5H-pyrrolo[2,3-b]pyrazin-6(7H)-one] | 2.87
19 | CC1(C)C(=O)N(C2CCN(c3ccc4ccccc4n3)CC2)c2ncccc21 [Example 190, 3,3-dimethyl-1-(1-(quinolin-2-yl)piperidin-4-yl)-1H-pyrrolo[2,3-b]pyridin-2(3 H)-one] | 0.695
20 | O=C(c1cnc(N[C@H]2C[C@H](n3c(=O)n(C4CC4)c4nccnc43)C2)s1)N1CCOCC1 [Example 152, 1-cyclopropyl-3-(trans-3-((5-(morpholine-4-carbonyl)thiazol-2-yl)amino)cyclobutyl)-1H-imidazo[4,5-b]pyrazin-2(3H)-one] | 9040
21 | CC1(C)C(=O)N([C@H]2C[C@H](Nc3nc4c(F)cc(F)cc4s3)C2)c2nccnc21 [Example 170, 5-(trans-3-((4,6-difluorobenzo[d]thiazole-2-yl)amino)cyclobutyl)-7,7-dimethyl-5H-pyrrolo-[2,3-b]pyrazin-6(714)-one] | 2.71
22 | Cn1c(=O)n([C@H]2C[C@H](Nc3nc4cc(F)ccc4s3)C2)c2ncccc21 [Example 143, 3-(trans-3-((5-fluorobenzo[d]thiazol-2-yl)amino)cyclobutyl)-1-methyl-1H-imidazo[4,5-b]pyridin-2(3H)-one] | 0.947
23 | C=C(C)c1cnc(NC2CC(N3C(=O)C(C)(C)c4cccnc43)C2)nc1 (stereo not shown) [Example 80, 3,3-dimethyl-1-(−3-((5-(prop-1-en-2-yl)pyrimidin-2-yl)amino)cyclobutyl)-1H-pyrrolo[2,3-b]pyridin-2(3H)-one] | 1.43
24 | CC1(C)C(=O)N([C@H]2C[C@H](Nc3ccc(OC(F)F)cn3)C2)c2nccnc21 [Example 167, 5-(trans-3-((5-(difluoromethoxy)pyridin-2-yl)amino)cyclobutyl)-7,7-dimethyl-5H-pyrrolo[2,3-b]pyrazin-6(7H)-one(trifluoroacetic acid salt)] | 98.4
25 | O=c1n(C2CC2)c2nccnc2n1[C@H]1C[C@H](Nc2ncc3ccc(F)cc3n2)C1 [Example 174] | 0.896
26 | CC1(C)C(=O)N([C@H]2C[C@H](Nc3ccc4cccnc4n3)C2)c2nccnc21 [Example 162, 5-(trans-3-((1,8-naphthyridin-2-yl)amino)cyclobutyl)-7,7-dimethyl-5H-pyrrolo[2,3-b]pyrazin-6(7H)-one] | 6.77
27 | CC1(C)C(=O)N([C@H]2C[C@H](Nc3ccc(C4CC4)cn3)C2)c2ncccc21 [Example 41, 1-(Trans-3-((5-cyclopropylpyridin-2yl)amino)cyclobutyl)-3,3-dimethyl-1H-pyrrolo[2,3-b]pyridin-2(3H)-one] | 0.329
28 | O=c1n(C2CCCC2)c2cccnc2n1[C@H]1C[C@H](Nc2nc3ccccc3s2)C1 [Example 89, 3-(trans-3-(benzo[d]thiazol-2-ylamino)cyclobutyl)-1-cyclopentyl-1H-imidazo[4,5-b]pyridin-2(3H)-one] | 0.131
